Results on 2 compounds are retold here after patent US4894374A, “Substituted 1,2-dihydro-4h-3,1-benzoxazin-4-one derivatives inhibitors of interleukin 1” (American Home Products Corporation, priority 1988, dated 1990).

The test system of the assay is IL 1-induced release of neutral protease from rabbit articular chondrocytes. As to the kind of experiment: inhibition of IL 1-induced release of neutral protease from rabbit articular chondrocytes. The assay is classed as cell-based, rabbit (New Zealand White). The conditions noted are these: Oryctolagus cuniculus, Chondrocyte, human IL 1 stimulation, 24 h, compound added 10 min before IL 1, ± S.D., read-out: % Inhibition (of protease secretion). As for the experimental part: The ability of the compounds of the inventions to inhibit interleukin 1 is measured by the ability of the test compounds to inhibit the IL 1-induced release of neutral protease from rabbit articular chondrocytes.
Male New Zealand White rabbits are anesthetized with 50 mg/kg of ketamine (i.m.) and killed by an intracardiac injection of 3 mls. of Nembutal. The knee joints of both legs are resected and the articular surfaces are exposed. Cartilage slices are obtained using a scalpel and are placed in a tissue culture dish (100 mm diameter) containing 10 mls of Hank's balanced salt solution (HBSS). The chondrocytes within the cartilage slices are then liberated by a series of enzyme digestions. The slices are incubated for 10 min. at 37° C. in 0.05% hyaluronidase (Sigma H-3884), rinsed with HBSS and incubated with 0.2% trypsin (Sigma T-2395) for 10 min. at 37° C. The slices are rinsed again and incubated for 10 mins. at 37° C. with 1.2% collagenase (Sigma C-5138). The slices are then rinsed again with HBSS and resuspended in 10 ml of Ham's F-12 medium containing 10% fetal bovine calf serum (FCS) and 0.2 % collagenase and incubated overnight at 37° C. in a 5% CO2 incubator. The next day, the medium containing the digested cartilage fragments and liberated chondrocytes is transferred to a 15 ml centrifuge tube and the cells are collected by centrifugation and washed twice and resuspended in Ham's F-12 medium. The cells are then plated into 24-well tissue culture plates (2×10^5 cells/well) and incubated at 37° C. until confluent (usually 4-6 days).
The confluent chondrocytes are rinsed twice with serum-free Ham's F-12 medium and 1 ml is added to each well. Fifty μl of purified human IL 1 (100 Units/ml; Genzyme Corporation, Boston, MA) is then added to stimulate these cells to secrete neutral protease. To measure drug effects, the cells are treated with test compound 10 min. prior to addition of IL 1. The standard screening dose is 10 μM. Twenty-four hours after IL 1 stimulation, supernatant fluids are collected and assayed for neutral protease activity.
The neutral protease activity of chondrocyte supernatant fluids is determined by their ability to degrade an insoluble protease substrate, azocoll (Sigma). Supernatants are treated for 10 min. at room temperature with 350 μM p-aminophenylmercuric acetate to activate the latent enzyme. Three hundred μl of supernatant is then mixed with 500 μl of a 20 mg/ml suspension of azocoll and incubated at 37° C. for 18-24 hrs. with gentle rocking. The mixtures are centrifuged and the amount of substrate hydrolyzed is determined by measuring the absorbance of the supernatant at 520 nm.
Drug effects are calculated as the % change in enzyme activity (absorbance)by supernatants from drug-treated chondrocytes relative to enzyme activity of supernatants from vehicle-treated chondrocytes as follows: % Inhibition of Protease Secretion= [formula]

On to `CS(=O)(=O)c1ccc(N2CCC3(CC2)Nc2cc(Cl)ccc2C(=O)O3)cc1` [Example 2, 7-Chloro-1'-[4-(methylsulfonyl)phenyl]spiro[2H-3,1-benzoxazine-2,4'-piperidin]-4(1H)-one], for which the inhibition – broadly, the drop in the measured response relative to a control, in per cent – at 1 µM stood at 30 ± 31%; the inhibition at 5 µM is 48 ± 7%; the inhibition at 10 µM was 51 ± 32%.
Consider `N#Cc1ccc(N2CCC3(CC2)Nc2cc(Cl)ccc2C(=O)O3)cc1` [Example 1, 4-[7-Chloro-1,3-dihydro-4-oxospiro[2H-3,1-benzoxazine-2,4'-piperidin]-1-yl]benzonitrile], for which the inhibition at 1 µM is 56 ± 22%, the inhibition at 5 µM was 55 ± 19% and the inhibition at 10 µM is 47 ± 34%.
